ChEMBL document CHEMBL1201862, “PubChem BioAssay data set” (2004)
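Following 48 hours of exposure in 96-well plates, responses at five concentrations were used to interpolate endpoints linearly. GI50 = concentration required for 50% inhibition of growth.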 The source made the active and inactive calls. No stated cut-off is given here; in the data, active = GI50 up to about 1.1 µM and inactive = higher.

What was measured:
Experiment in all cases: NCI tumour cell line growth inhibition, 48 h
[1] = tested on: HOP-62
[2] = tested on: MOLT-4
[3] = tested on: UO-31
[4] = tested on: K562
[5] = tested on: UACC-62
[6] = tested on: TK-10
[7] = tested on: SK-MEL-28
[8] = tested on: SN12C
[9] = tested on: SK-OV-3
[10] = tested on: HCT-15
[11] = tested on: OVCAR-4
[12] = tested on: RPMI-8226
[13] = tested on: HT-29
[14] = tested on: A549
[15] = tested on: OVCAR-5
[16] = tested on: UACC-257
[17] = tested on: COLO 205
[18] = tested on: NCI-H23
[19] = tested on: SF-539

Row | Structure (SMILES) | GI50 [1] | GI50 [2] | GI50 [3] | GI50 [4] | GI50 [5] | GI50 [6] | GI50 [7] | GI50 [8] | GI50 [9] | GI50 [10] | GI50 [11] | GI50 [12] | GI50 [13] | GI50 [14] | GI50 [15] | GI50 [16] | GI50 [17] | GI50 [18] | GI50 [19]
1 | COC(=O)C(=O)C1(CCC(C)=O)c2ccccc2-c2ccccc21 | 68.7 µM (inactive) | 33.4 µM (inactive) | 41 µM (inactive) | 44.5 µM (inactive) | 97.7 µM (inactive) | 71.3 µM (inactive) | 94 µM (inactive) | > 100 µM (inactive) | > 100 µM (inactive) | 56.4 µM | > 100 µM (inactive) | 36.4 µM (inactive) | 79.8 µM (inactive) | 87.5 µM (inactive) | > 100 µM (inactive) | 55.2 µM (inactive) | 76.9 µM (inactive) | 63.2 µM (inactive) | 
2 | CC1CN1c1c(C(=O)/C=C/c2ccccc2)c(-c2ccccc2)nn(C)c1=O (stereo unspecified) | 22 µM (inactive) | 15.2 µM (inactive) | 15.5 µM (inactive) | 18.2 µM (inactive) | 16.2 µM (inactive) | 25.8 µM (inactive) | 25.3 µM (inactive) | 17.7 µM (inactive) | 31.6 µM (inactive) | 14.1 µM | 16.2 µM (inactive) |  | 15.7 µM (inactive) | 28.6 µM (inactive) | 20.3 µM (inactive) | 18.1 µM (inactive) | 16.2 µM (inactive) | 16.6 µM (inactive) | 16.9 µM (inactive)
3 | CC1CC(=O)Nc2ccc(Cl)cc2N1C(=O)CN1CCC(CCCCN(C)C)CC1 (stereo unspecified) | > 100 µM (inactive) | > 100 µM (inactive) | > 100 µM (inactive) | 80 µM (inactive) | > 100 µM (inactive) | > 100 µM (inactive) | > 100 µM (inactive) | > 100 µM (inactive) | > 100 µM (inactive) | > 100 µM | > 100 µM (inactive) | > 100 µM (inactive) | > 100 µM (inactive) | > 100 µM (inactive) | > 100 µM (inactive) | > 100 µM (inactive) | > 100 µM (inactive) | > 100 µM (inactive) | 
4 | COc1ccc2c3ccc4c(c3n(C)c2c1)C(=O)c1ccccc1C4=O | > 100 µM (inactive) | > 100 µM (inactive) | > 100 µM (inactive) | > 100 µM (inactive) | > 100 µM (inactive) |  | > 100 µM (inactive) | > 100 µM (inactive) | 21.6 µM (inactive) | > 100 µM | 17.8 µM (inactive) | > 100 µM (inactive) | 11.7 µM (inactive) | 74.5 µM (inactive) |  | > 100 µM (inactive) | 75.2 µM (inactive) | > 100 µM (inactive) | 22.2 µM (inactive)
5 | O=S1(=O)OCCOS(=O)(=O)C1I | > 100 µM (inactive) | 75.3 µM (inactive) | 48.5 µM (inactive) | > 100 µM (inactive) | 40.1 µM (inactive) | > 100 µM (inactive) | > 100 µM (inactive) | > 100 µM (inactive) | > 100 µM (inactive) |  | > 100 µM (inactive) | > 100 µM (inactive) | > 100 µM (inactive) | > 100 µM (inactive) |  | > 100 µM (inactive) | > 100 µM (inactive) | > 100 µM (inactive) | > 100 µM (inactive)
6 | CN(C)c1ccc(/C=C/C(=O)c2ccccc2)cc1Br | 48.5 µM (inactive) | 23 µM (inactive) | 18.5 µM (inactive) | 20.6 µM (inactive) | 16.5 µM (inactive) | 26.1 µM (inactive) | 13.7 µM (inactive) | 21.1 µM (inactive) | 33 µM (inactive) | 22.9 µM | 15.5 µM (inactive) | 13.2 µM (inactive) | 19.7 µM (inactive) | 34.9 µM (inactive) | 49.3 µM (inactive) | 22.3 µM (inactive) | 18.3 µM (inactive) | 16.5 µM (inactive) | 
7 | CCCNCc1nc2ccc(Br)cc2c(=O)n1CCC | 22 µM (inactive) | 7.8 µM (inactive) | 16.2 µM (inactive) | 8.04 µM (inactive) | 6.93 µM (inactive) |  | 15.3 µM (inactive) | 13.6 µM (inactive) | 18.7 µM (inactive) | 14.2 µM | 14.6 µM (inactive) | 3.67 µM (inactive) | 15.1 µM (inactive) | 16.6 µM (inactive) |  | 13.3 µM (inactive) | 14.6 µM (inactive) | 13.4 µM (inactive) | 15.8 µM (inactive)
8 | Clc1ccc(/C=C/c2csnn2)cc1 | > 100 µM (inactive) | > 100 µM (inactive) | > 100 µM (inactive) | > 100 µM (inactive) | > 100 µM (inactive) | > 100 µM (inactive) | > 100 µM (inactive) | > 100 µM (inactive) | > 100 µM (inactive) | > 100 µM | > 100 µM (inactive) |  | > 100 µM (inactive) | > 100 µM (inactive) | > 100 µM (inactive) | > 100 µM (inactive) | > 100 µM (inactive) | > 100 µM (inactive) | > 100 µM (inactive)
9 | CCCCCCCCCCCCCC(=O)CSCCNC(=O)CCNC(=O)[C@@H](O)C(C)(C)COP(=O)(O)OP(=O)(O)OCC1OC(n2cnc3c(N)ncnc32)C(O)C1OP(=O)(O)O (stereo partly specified) | 16 µM (inactive) |  | 14.4 µM (inactive) |  | 15 µM (inactive) | 68.2 µM (inactive) | 18.3 µM (inactive) | 16.4 µM (inactive) | 14.6 µM (inactive) | 17.1 µM | 6.75 µM (inactive) |  | 18.8 µM (inactive) | 20.1 µM (inactive) | 32.4 µM (inactive) | 18.1 µM (inactive) | 13.1 µM (inactive) | 18.7 µM (inactive) | 16.2 µM (inactive)
10 | COC1=CC(C)C2C[C@H]3O[C@H](O)C[C@H]4C(C)C(=O)C(O)C([C@@]2(C)C1=O)[C@@]34C (stereo partly specified) |  | > 100 µM (inactive) | > 100 µM (inactive) | > 100 µM (inactive) | > 100 µM (inactive) | > 100 µM (inactive) | > 100 µM (inactive) | > 100 µM (inactive) | > 100 µM (inactive) | > 100 µM |  | > 100 µM (inactive) | > 100 µM (inactive) | > 100 µM (inactive) |  | > 100 µM (inactive) | > 100 µM (inactive) | > 100 µM (inactive) | > 100 µM (inactive)
11 | COC(=O)C1CC(OC(C)=O)C=C2C(=O)CCC21 (stereo unspecified) | 25.4 µM (inactive) | 14.6 µM (inactive) | 27.2 µM (inactive) | 15.9 µM (inactive) | 19.3 µM (inactive) | 29.4 µM (inactive) | 17.1 µM (inactive) | 19.2 µM (inactive) | 27.1 µM (inactive) | 15.3 µM | 19 µM (inactive) | 21.4 µM (inactive) |  | 37.2 µM (inactive) |  | 16.8 µM (inactive) | 18.7 µM (inactive) |  | 20.6 µM (inactive)
12 | CC(C)c1ccc(C(c2ccc(OCC(=O)O)cc2)c2ccc(C(C)C)cc(=O)c2O)c(O)c(=O)c1 | 2.79 µM (inactive) | 3.73 µM (inactive) |  | 3.41 µM (inactive) | 3.55 µM (inactive) | 5.3 µM (inactive) | 4.81 µM (inactive) | 4.15 µM (inactive) | 6.81 µM (inactive) | 3.56 µM | 3.61 µM (inactive) | 4.38 µM (inactive) | 3.92 µM (inactive) | 3.48 µM (inactive) |  | 5.6 µM (inactive) | 3.14 µM (inactive) | 3.78 µM (inactive) | 6.05 µM (inactive)
